Data on two molecules can be found in patent publication US7563590B2, “Methods of quantifying methotrexate metabolites” (Cypress Bioscience Inc., priority 2002, dated 2009).

One series addresses T1, gamma glutamyl hydrolase (Homo sapiens, UniProt Q92820).
T1 construct: contacting the extract with plasma as a source of gamma glutamyl hydrolase; tissue Sigma P9523; host or cells: reconstituted lyophilized plasma (purchased), mixed with RBC hemolysate from healthy donors
T1 sequence (Q92820 25-318): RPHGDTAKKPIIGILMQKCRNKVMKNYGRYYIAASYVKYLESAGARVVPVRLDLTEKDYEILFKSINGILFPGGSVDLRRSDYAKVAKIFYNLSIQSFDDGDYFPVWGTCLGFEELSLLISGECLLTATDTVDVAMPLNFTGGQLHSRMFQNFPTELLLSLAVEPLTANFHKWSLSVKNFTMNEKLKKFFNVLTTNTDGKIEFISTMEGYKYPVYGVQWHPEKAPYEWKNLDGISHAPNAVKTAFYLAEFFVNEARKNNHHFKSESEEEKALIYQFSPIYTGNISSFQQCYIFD
Kind of series: Enzymatic conversion of MTXPGs to MTX in RBC extract using plasma as source of gamma glutamyl hydrolase. Type of series: biochemical. Conditions: for conversion to MTX: in the dark, 1000 nmol/L RBC. The protocol:
MTXPGs were enzymatically converted to MTX by incubation with RBC extract and plasma as follows. RBCs were isolated from healthy donors (Blood bank; San Diego, Calif.) Hemolysates were prepared having 0.88×10^9 RBC per 100 μl. For spiked samples, MTXPG (Schirks Laboratories; Jona, Switzerland) was added to RBC extracts at a final concentration of 1 μM (from stock solutions containing 100 μM MTXPG in 0.1 N potassium hydroxide). Reconstituted plasma was prepared from lyophilized plasma (Sigma, St. Louis, USA; Cat. No. P9523) and 100 μl was added to 50 μl of RBC extract, mixed for 30 seconds, and 100 μl of buffer containing 100 mM potassium phosphate pH 4.5 and 150 mM mercaptoethanol was added. […] Samples were incubated for 12-14 hours, unless otherwise indicated, in the dark at 37° C. After incubation 30 μl of 70% perchloric acid was added to the mixture, vortexed for 15 seconds and centrifuged for 10 minutes. A total volume of 80 μl was injected onto the HPLC system for analysis using the MTX detection system described in Example I.
The percent conversion of MTXPG to MTX was determined by comparing the peak area of MTX formed during the enzymatic conversion at different times with the peak area of MTX spiked in the red blood cells at the same concentration.

The nature of series [1]: Intracellular MTX and MTXPG levels in RBCs of polyarthritis patients receiving low-dose MTX. Type of series: in vivo, human. Conditions: one patient on 2.5 mg per week MTX, RBC. The protocol: Blood samples (5 ml) from polyarthritis patients receiving low-dose MTX were collected after written informed consent. The patients had received a median of 15 mg MTX (range 2.5 mg to 40 mg per week) for at least three months. Blood samples were centrifuged for 10 minutes to separate plasma and buffy coat from RBCs. After washing the RBC pellet with 2 volumes of saline, RBC count was determined with a Beckman Coulter Onyx Counter; RBCs were subsequently stored at −70° C. until analysis. Results were normalized to 10^9 red blood cells. Patient results were expressed as average ±SEM (range).
MTXPG concentrations were determined using the methods described in Example II except that RBC extracts were not spiked with MTXPG. MTXPG concentrations were calculated by subtracting […]. To quantify MTX concentrations without enzymatic treatment, a second 100 μl aliquot of patient RBC extract was obtained but not treated with plasma or buffer. Rather, 200 μl water was added to the RBC extract prior to immediate deproteinization with 30 μl 70% perchloric acid as described above.
An exemplary determination of MTXPG concentration in the red blood cells of a patient on 2.5 mg per week MTX therapy follows. […]

Molecules are shown by their SMILES.

As for `CN(Cc1cnc2nc(N)nc(N)c2n1)c1ccc(C(=O)N[C@@H](CCC(=O)N[C@@H](CCC(=O)O)C(=O)O)C(=O)O)cc1` [MTXPG2], the “slope of plot of observed MTX concentration versus spiked concentration” value at gamma glutamyl hydrolase (RBC sample spiked prior to deglutamation (FIG. 5)) came to 0.98. Also, the “conversion to MTX” value is on record as “completely converted” on gamma glutamyl hydrolase (after 8 hour incubation at 37° C.) and “largely complete” on gamma glutamyl hydrolase (by 4 hours, 37° C.).
Take `CN(Cc1cnc2nc(N)nc(N)c2n1)c1ccc(C(=O)N[C@@H](CCC(=O)O)C(=O)O)cc1` [MTX, methotrexate]: in series [1], the “MTX concentration prior to enzymatic conversion” value is 16.5 pmol MTXPG/10^9 cells.
